Test results reported in US20220251105A1, “METHODS OF TREATING A MK2-MEDIATED DISORDER” (Celgene CAR LLC, priority 2019, published 2022).
Read-outs that look alike come from different tables or passages of the source.

What was measured:
[1] = tested on: cytokines and chemokines produced by ankylosing spondylitis patient cells (TNF-α, IL-17A, MCP-1, IL-6); experiment: ex vivo cytokine and chemokine production by ankylosing spondylitis patient cells; format: cell-based, human; conditions: ankylosing spondylitis patient cells in vitro
[2] = plasma exposure in HLA-B27/Huβ2m rats; conditions: HLA B27 Tg rat, 20 mg/kg
Source text: In each disease model, steady-state pharmacokinetics were characterized.

[3] = tested on: Ankylosing spondylitis in HLA B27 Tg rat; experiment: HLA-B27/Huβ2m transgenic rat model of ankylosing spondylitis
Source text: Etanercept and tofactinib (Balagué et al. Profiling of dihydroorotate dehydrogenase, p38 and JAK inhibitors in the rat adjuvant-induced arthritis model: a translational study. Br J Pharmacol. 2012 June; 166(4):1320-32) were included in this rat study as comparator molecules.

[4] = single intravenous dose pharmacokinetics in Sprague Dawley rats; format: in vivo; conditions: rat, plasma; for Vd: read-out: Vdss
Experimental: (§1) In vitro and in vivo studies were conducted to characterize the absorption, PK, distribution, and metabolism of Compound 1. […] Additionally, plasma samples from single dose PK studies in mice and monkeys were evaluated for circulating metabolites.

[5] = single oral dose pharmacokinetics in cynomolgus monkeys; format: in vivo, cynomolgus monkey
Experimental: as §1

[6] = physical form (amorphous/crystalline) in dose formulation vehicle; format: physicochemical
Source text: Additionally, the vehicle used in the pivotal studies was changed from 0.5% methyl cellulose (400 cps) and 0.1% Tween 80 to distilled water.

[7] = exposure in 28- and 91-day monkey toxicology studies
TNF-α secretion by PBMCs = experiment: ex vivo studies of PBMCs from healthy volunteers; format: cell-based, human; conditions: at TE of 60%
[8] = tested on: osteoclast differentiation; experiment: osteoclast differentiation in vitro; format: cell-based
Crl:CD1 (ICR) mice = experiment: 28-day repeat-dose oral toxicity study in mice; conditions: mouse, in vivo
Source text: (§2) Additionally, toxicokinetic animals received the vehicle or compound in the same manner and dose levels as the main study groups.

[9] = 28-day repeat-dose oral toxicity study in mice; conditions: both sexes, Crl:CD1 (ICR), mouse, in vivo; mice, 28 days
Source text: as §2

bone resorption activity = bone resorption activity in vitro; format: cell-based
[10] = tested on: Mannan PsA in C57B1/6 mice; experiment: mannan-induced psoriatic arthritis model; format: in vivo, mouse
[11] = 28- and 91-day toxicology studies in cynomolgus monkeys; conditions: cynomolgus monkey, in vivo, oral
[12] = single oral dose pharmacokinetics in CD-1 mice; format: in vivo, mouse
Experimental: as §1

[13] = tested on: Imiquimod ear swelling in BALB/c mice; experiment: imiquimod-induced ear swelling model; format: in vivo, mouse
CYP3A4/5 = experiment: in vitro assessment of CYP inhibition; format: in vitro ADME, human; conditions: in vitro assessments
Experimental: as §1

[14] = cynomolgus monkey, plasma, monkey, female, single oral 50 mg/kg
[15] = cynomolgus monkey, plasma, monkey, female, single oral 150 mg/kg
[16] = cynomolgus monkey, plasma, monkey, female, single oral 375 mg/kg
[17] = cynomolgus monkey, plasma, monkey, male, single oral 50 mg/kg
[18] = cynomolgus monkey, plasma, monkey, male, single oral 150 mg/kg
[19] = cynomolgus monkey, plasma, monkey, male, single oral 375 mg/kg
[20] = CD-1, plasma, mouse, female, single oral 15 mg/kg
[21] = CD-1, plasma, mouse, female, single oral 100 mg/kg
[22] = CD-1, plasma, mouse, male, single oral 15 mg/kg
[23] = CD-1, plasma, mouse, male, single oral 100 mg/kg

CCOCc1cnc(Cl)nc1Oc1ccc2c(ccc3sc4c(c32)NC[C@@H](C)NC4=O)n1 [Compound 1]
production of cytokines and chemokines incl. TNF-α, IL-17A, MCP-1, IL-6 [1]: significantly inhibited
AUC [2]: 2820 ng·h/mL
Paw Swelling Inhibition (%) ([3]; 100 mg/kg daily oral gavage): 65%
dose dependence of inhibition of paw swelling ([3]; 20 and 100 mg/kg): dose-dependent inhibition of paw swelling
cytokines IL-7, IL-1β; chemokines MCP-1, MIP-1α, KC; GM-CSF ([3]; HLA-B27/Huβ2m rats): A trend towards decreases
Minimally Efficacious Dose (lowest tested dose determined to be effective) ([3]; endpoint paw score): 20 mg/kg
half-life ([4]; both sexes, iv, 5 mg/kg, rats, read-out: terminal half-life): ≤ 1 h
AUC ([4]; female, single IV 5 mg/kg): 3950 ng·h/mL
AUC(0-inf) ([4]; female, single IV 5 mg/kg): 3960 ng·h/mL
clearance ([4]; female, single IV 5 mg/kg): 21.5 mL/min/kg
Vd ([4]; female, single IV 5 mg/kg): 0.561 L/kg
half-life ([4]; female, single IV 5 mg/kg, read-out: t1/2,z (converted)): 1.1 h
AUC ([4]; male, single IV 5 mg/kg): 2020 ng·h/mL
AUC(0-inf) ([4]; male, single IV 5 mg/kg): 2020 ng·h/mL
clearance ([4]; male, single IV 5 mg/kg): 42.2 mL/min/kg
Vd ([4]; male, single IV 5 mg/kg): 0.648 L/kg
half-life ([4]; male, single IV 5 mg/kg, read-out: t1/2,z (converted)): 0.23 h
bioavailability ([5]; both sexes, cynomolgus monkey, plasma, po, monkeys, doses in the range 15 to 375 mg/kg): 8 to 28%
Tmax ([5]; both sexes, cynomolgus monkey, plasma, monkeys, oral dosing, read-out: time to maximum plasma concentration (tmax)): 1 to 6 h
AUC [5, 14]: 3810 ng·h/mL
AUC(0-inf) [5, 14]: 3840 ng·h/mL
Cmax [5, 14]: 1040 ng/mL
Tmax ([5]; cynomolgus monkey, plasma, monkey, female, single oral 50 mg/kg, median, read-out: tmax): 2 h
AUC [5, 15]: 4750 ng·h/mL
AUC(0-inf) [5, 15]: 4820 ng·h/mL
Cmax [5, 15]: 1200 ng/mL
Tmax ([5]; cynomolgus monkey, plasma, monkey, female, single oral 150 mg/kg, median, read-out: tmax): 2 h
AUC [5, 16]: 22600 ng·h/mL
AUC(0-inf) [5, 16]: 22700 ng·h/mL
Cmax [5, 16]: 2530 ng/mL
Tmax ([5]; cynomolgus monkey, plasma, monkey, female, single oral 375 mg/kg, median, read-out: tmax): 6 h
AUC [5, 17]: 3680 ng·h/mL
AUC(0-inf) [5, 17]: 3710 ng·h/mL
Cmax [5, 17]: 865 ng/mL
Tmax ([5]; cynomolgus monkey, plasma, monkey, male, single oral 50 mg/kg, median, read-out: tmax): 2 h
AUC [5, 18]: 8480 ng·h/mL
AUC(0-inf) [5, 18]: 8590 ng·h/mL
Cmax [5, 18]: 1990 ng/mL
Tmax ([5]; cynomolgus monkey, plasma, monkey, male, single oral 150 mg/kg, median, read-out: tmax): 1 h
AUC [5, 19]: 13900 ng·h/mL
AUC(0-inf) [5, 19]: 14000 ng·h/mL
Cmax [5, 19]: 1890 ng/mL
F ([5]; monkey, female, single oral 50 mg/kg): 19%
F ([5]; monkey, female, single oral 150 mg/kg): 8%
F ([5]; monkey, female, single oral 375 mg/kg): 15%
F ([5]; monkey, male, single oral 50 mg/kg): 18%
F ([5]; monkey, male, single oral 150 mg/kg): 14%
F ([5]; monkey, male, single oral 375 mg/kg): 9%
physical form after dose formulation preparation ([6]; Tween 80 present in the vehicle): changed from an amorphous to a crystalline form, beginning within the first hour
time remaining in the amorphous form ([6]; prepared in distilled water): at least 24 hours
AUC ([7]; cynomolgus monkey, plasma, oral, 375 mg/kg/day): 9120 ng·h/mL
margin of monkey exposure over human 150-mg dose ([7]; monkey NOAEL AUCLST vs human 150 mg): 6.7 fold
inhibition of TNF-α secretion (TNF-α secretion by PBMCs): approximately 70%
osteoclast differentiation [8]: inhibit osteoclast differentiation in vitro
compound-related findings (Crl:CD1 (ICR) mice; 15 mg/kg/day): no compound-related findings
microscopic finding, skeletal muscle (Crl:CD1 (ICR) mice; 100 mg/kg/day): Minimal to mild myofiber degeneration in the skeletal muscle
adverse effect, heart (Crl:CD1 (ICR) mice; 750 mg/kg/day): Minimal to mild myofiber degeneration in the heart
change in mean absolute reticulocyte count (Crl:CD1 (ICR) mice; 750 mg/kg/day): −29%
change in mean platelet count (Crl:CD1 (ICR) mice; 750 mg/kg/day): +96%
leukocyte counts (non-adverse) (Crl:CD1 (ICR) mice; 750 mg/kg/day): Minimal to mild decreases in lymphocyte counts and inconsistent decreases in most other leukocyte subtypes
microscopic finding, duodenum (Crl:CD1 (ICR) mice; 750 mg/kg/day): Minimal to mild erosion/ulceration of the proximal duodenum
microscopic finding, liver (Crl:CD1 (ICR) mice; 750 mg/kg/day): Centrilobular hepatocellular hypertrophy (typically of minimal severity)
microscopic finding, thymus (Crl:CD1 (ICR) mice; 750 mg/kg/day): Minimal to mild thymic cortical lymphoid depletion
organ weights (non-adverse) (Crl:CD1 (ICR) mice; 750 mg/kg/day): Increased liver and heart weights
NOAEL at 28 days [9]: 100 mg/kg/day
bone resorption activity (bone resorption activity): reduce bone resorption activity in vitro
% Inhibition by PsASI ([10]; 3 mg/kg, from PsASI-score time curve): 36% by
Minimally Efficacious Dose ([10]; endpoint PsASI score (ear thickness, skin flakiness, paw score combined)): 3 mg/kg
NOAEL [11]: 375 mg/kg/day
AUC [12, 20]: 5170 ng·h/mL
AUC(0-inf) [12, 20]: 5250 ng·h/mL
Cmax [12, 20]: 1980 ng/mL
Tmax ([12]; CD-1, plasma, mouse, female, single oral 15 mg/kg, read-out: tmax): 0.5 h
AUC [12, 21]: 28200 ng·h/mL
AUC(0-inf) [12, 21]: 28400 ng·h/mL
Cmax [12, 21]: 8080 ng/mL
Tmax ([12]; CD-1, plasma, mouse, female, single oral 100 mg/kg, read-out: tmax): 0.25 h
AUC [12, 22]: 2870 ng·h/mL
AUC(0-inf) [12, 22]: 3040 ng·h/mL
Cmax [12, 22]: 1270 ng/mL
Tmax ([12]; CD-1, plasma, mouse, male, single oral 15 mg/kg, read-out: tmax): 0.25 h
AUC [12, 23]: 19200 ng·h/mL
AUC(0-inf) [12, 23]: 19200 ng·h/mL
Cmax [12, 23]: 6600 ng/mL
Tmax ([12]; CD-1, plasma, mouse, male, single oral 100 mg/kg, read-out: tmax): 0.5 h
bioavailability ([12]; both sexes, CD-1, mouse, plasma, po, mice, doses in the range 15 to 375 mg/kg): 22 to 51%
Tmax ([12]; both sexes, CD-1, mouse, plasma, mice, oral dosing, read-out: time to maximum plasma concentration (tmax)): 0.25 to 1 h
F ([12]; mouse, female, single oral 15 mg/kg): 51%
F ([12]; mouse, female, single oral 100 mg/kg): 41%
F ([12]; mouse, male, single oral 15 mg/kg): 23%
F ([12]; mouse, male, single oral 100 mg/kg): 22%
% Inhibition by ear thickness clinical score ([13]; 3 mg/kg, from area under the ear thickness-time curve): 57% by ear
Minimally Efficacious Dose ([13]; endpoint ear thickness): 3 mg/kg
inhibition of intestinal CYP3A4/5 (CYP3A4/5): potential for direct and time-dependent inhibition
